Numbers after ± are expanded uncertainties.
Conditions: 84 kPa, Liquid, Pycnometric method

CN(CCO)CCO [N-methyldiethanolamine]
mass density (293.15 K): 1041.12 ± 1.9 kg/m3
mass density (303.15 K): 1033.6 ± 1.9 kg/m3
mass density (313.15 K): 1025.83 ± 1.9 kg/m3
mass density (323.15 K): 1017.8 ± 1.9 kg/m3
mass density (333.15 K): 1010.8 ± 1.9 kg/m3
mass density (343.15 K): 1002.76 ± 1.9 kg/m3
